Test results from patent US12030896B2, “PIKfyve inhibitors” (Mayo Foundation for Medical Education and Research, priority 2018, dated 2024).

Experiments:
[1] = test system: Human lymphoma cell lines; experiment: Killing of human lymphoma cell lines; format: cell-based; conditions: 72 hours
Description: Human lymphoma cell lines were incubated for 72 hours with various concentrations of the compound, and survival determined by cell counting or by ATP assay, as shown in FIG. 7. In the lymphoma experiments, RPMI media (Life Technologies) was used as the base formulation for “complete” media. Trypsin was not needed for these non-adherent cell lines. For the “cell-counting” data, cells were pipetted up and down to evenly disburse, then 10 μL of the suspension was counted using an Accuri C6 cytometer, using on forward and side scatter to gate on a viable population.

[2] = test system: Human osteosarcoma cells (U2OS, 143B, MG63, and SAOS2) and human pancreatic cancer cells (Panc-1, CFPAC); experiment: Killing of osteosarcoma and pancreatic cell lines (Alamar Blue); format: cell-based; conditions: 72 hrs
Description: Human osteosarcoma cells (U2OS, 143B, MG63, and SAOS2) and human pancreatic cancer cells (Panc-1, CFPAC) were similarly tested for killing by the compound, as shown in FIG. 5. All experiments in FIG. 5 were performed using DMEM:F12 media (Life Technologies) as the base formulation for “complete” media for experiments with 143B and MG63 cells. Also, Alamar Blue was used to assay the relative number of viable cells per well after 72 hrs of growth. For these assays, growth media was removed from the cells, and replaced with fresh (“complete) media containing Alamar Blue reagent (Life Technologies) diluted 1:10. Plates were incubated at 5% CO2, 37° C. for 40 min then removed from the incubator and fluorescence was measured using a Synergy H1 microplate reader (Excitation: 560 nm Emission: 590 nm). Values represent raw photo counts minus the value of a well with Alamar Blue reagent (1:10 in medium) but no cells.

[3] = Solubility; format: physicochemical
Description: The compound has a molecular weight of 428.5. It is soluble in DMSO. In addition, solutions of at least 10 mg/ml can be prepared using a mixture of DMSO (10%), cremaphor (20%), and water (70%).

[4] = test system: MPNST cells lines (S462, S462TY, 26T, T265, SNF96.2); experiment: Cytotoxicity against MPNST cell lines; conditions: DMEM-based medium
From the text: For this reason, it was hypothesized that tumor cells that have activated RAS would have increased sensitivity to this compound. Malignant peripheral nerve sheath tumors (MPNSTs) arise in the population sporadically, and with very high frequency in patients with NF1 mutation. NF1 is a RAS suppressor, and therefore, tumors arising in the NF1-mutant background, have apriori activation of the RAS signaling pathway.

SMILES | cell killing [1] | cell killing [2] | solubility in DMSO ([3]; DMSO) | concentration of solutions that can be prepared ([3]; DMSO (10%), cremaphor (20%), and water (70%)) | sensitivity to compound-induced death [4]
Cc1ccc(Nc2nc(N/N=C/c3c[nH]c4ccccc34)nc(N3CCOCC3)n2)cc1 [Example 1, (E)-4-(2-((1H-indol-3-yl)methylene)hydrazinyl)-6-morpholino-N-(p-tolyl)-1,3,5-triazin-2-amine] | killing | killing | soluble | at least 10 mg/ml | 
Cc1ccc(Nc2nc(N/N=C/c3c[nH]c4ccccc34)cc(N3CCOCC3)n2)cc1 [Example 3, (E)-4-(2-((1H-indol-3-yl)methylene)hydrazinyl)-6-morpholino-N-(p-tolyl)pyrimidin-2-amine] |  |  |  |  | highly sensitive
